Reference: PubChem BioAssay AID2060603 (Molecular Pharmacology Branch, DTP, NCI, 2025)

System: 422866-222-R5-J1-PDC spheroid viability
Assay: Anticancer human tumor 422866-222-R5-J1-PDC patient-derived pancreatic adenocarcinoma cell line growth inhibition [CLK]
Conditions: spheroids with HUVEC and MSC; for IC50: curve of first compound; for viability, T/C: stronger effect = lower value
Summary of the method: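 Multi-cell-type spheroids combined patient-derived tumor cells with HUVEC endothelial cells and human mesenchymal stem cells. Paired agents were dosed in half-log steps down from about clinical Cmax, or from 10 microM where Cmax was unknown.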

[1] = second compound 0.0316 µM, first compound 0.0316 µM
[2] = second compound 0.0316 µM, first compound 0.1 µM
[3] = second compound 0.0316 µM, first compound 0.316 µM
[4] = second compound 0.0316 µM, first compound 1 µM
[5] = second compound 0.0316 µM, first compound 3.16 µM
[6] = second compound 0.0316 µM, first compound 10 µM
[7] = second compound 0.1 µM, first compound 0.0316 µM
[8] = second compound 0.1 µM, first compound 0.1 µM
[9] = second compound 0.1 µM, first compound 0.316 µM
[10] = second compound 0.1 µM, first compound 1 µM
[11] = second compound 0.1 µM, first compound 3.16 µM
[12] = second compound 0.1 µM, first compound 10 µM
[13] = second compound 0.316 µM, first compound 0.0316 µM
[14] = second compound 0.316 µM, first compound 0.1 µM
[15] = second compound 0.316 µM, first compound 0.316 µM
[16] = second compound 0.316 µM, first compound 1 µM
[17] = second compound 0.316 µM, first compound 3.16 µM
[18] = second compound 0.316 µM, first compound 10 µM
[19] = second compound 1 µM, first compound 0.0316 µM
[20] = second compound 1 µM, first compound 0.1 µM
[21] = second compound 1 µM, first compound 0.316 µM
[22] = second compound 1 µM, first compound 1 µM
[23] = second compound 1 µM, first compound 3.16 µM
[24] = second compound 1 µM, first compound 10 µM
[25] = second compound 3.16 µM, first compound 0.0316 µM
[26] = second compound 3.16 µM, first compound 0.1 µM
[27] = second compound 3.16 µM, first compound 0.316 µM
[28] = second compound 3.16 µM, first compound 1 µM
[29] = second compound 3.16 µM, first compound 3.16 µM
[30] = second compound 3.16 µM, first compound 10 µM
[31] = second compound 10 µM, first compound 0.0316 µM
[32] = second compound 10 µM, first compound 0.1 µM
[33] = second compound 10 µM, first compound 0.316 µM
[34] = second compound 10 µM, first compound 1 µM
[35] = second compound 10 µM, first compound 3.16 µM
[36] = second compound 10 µM, first compound 10 µM
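Also: spheroids exposed to agents for seven days before readout.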

CC1COCCN1c1cc(C2(S(C)(=N)=O)CC2)nc(-c2ccnc3[nH]ccc23)n1 (stereo not drawn) + CNC(=O)c1ccc(Nc2nc(OC3CCCC3)c3c(-c4ccc5nc(C)oc5c4)c[nH]c3n2)c(OC)c1
IC50 (second compound 0.0316 µM): 7.15 µM | IC50 (second compound 0.1 µM): > 10 µM | IC50 (second compound 0.316 µM): 2.56 µM | IC50 (second compound 1 µM): 1.56 µM | IC50 (second compound 3.16 µM): 0.973 µM | IC50 (second compound 10 µM): 0.63 µM | viability, T/C [1]: 108% | viability, T/C [2]: 137% | viability, T/C [3]: 104% | viability, T/C [4]: 102% | viability, T/C [5]: 59.6% | viability, T/C [6]: 46.2% | viability, T/C [7]: 106% | viability, T/C [8]: 98.4% | viability, T/C [9]: 88% | viability, T/C [10]: 84.6% | viability, T/C [11]: 56.9% | viability, T/C [12]: 60.6% | viability, T/C [13]: 79.8% | viability, T/C [14]: 71.6% | viability, T/C [15]: 69.3% | viability, T/C [16]: 58% | viability, T/C [17]: 43.5% | viability, T/C [18]: 50.5% | viability, T/C [19]: 61.4% | viability, T/C [20]: 66.7% | viability, T/C [21]: 59.3% | viability, T/C [22]: 52.1% | viability, T/C [23]: 43.6% | viability, T/C [24]: 52.5% | viability, T/C [25]: 65.3% | viability, T/C [26]: 65.1% | viability, T/C [27]: 58.3% | viability, T/C [28]: 50% | viability, T/C [29]: 44.8% | viability, T/C [30]: 53.8% | viability, T/C [31]: 64.5% | viability, T/C [32]: 69.2% | viability, T/C [33]: 58.8% | viability, T/C [34]: 42.2% | viability, T/C [35]: 39.8% | viability, T/C [36]: 50.4%

Cn1ncnc1[C@H]1c2n[nH]c(=O)c3cc(F)cc(c23)N[C@@H]1c1ccc(F)cc1 + CNC(=O)c1ccc(Nc2nc(OC3CCCC3)c3c(-c4ccc5nc(C)oc5c4)c[nH]c3n2)c(OC)c1
IC50 (second compound 0.0316 µM): > 0.1 µM | IC50 (second compound 0.1 µM): > 0.1 µM | IC50 (second compound 0.316 µM): > 0.1 µM | IC50 (second compound 1 µM): > 0.1 µM | IC50 (second compound 3.16 µM): > 0.1 µM | IC50 (second compound 10 µM): > 0.1 µM | viability, T/C (second compound 0.0316 µM, first compound 0.000316 µM): 105% | viability, T/C (second compound 0.0316 µM, first compound 0.001 µM): 112% | viability, T/C (second compound 0.0316 µM, first compound 0.00316 µM): 102% | viability, T/C (second compound 0.0316 µM, first compound 0.01 µM): 91.2% | viability, T/C [1]: 89.6% | viability, T/C [2]: 78.6% | viability, T/C (second compound 0.1 µM, first compound 0.000316 µM): 98.8% | viability, T/C (second compound 0.1 µM, first compound 0.001 µM): 91% | viability, T/C (second compound 0.1 µM, first compound 0.00316 µM): 84.2% | viability, T/C (second compound 0.1 µM, first compound 0.01 µM): 89.8% | viability, T/C [7]: 74.8% | viability, T/C [8]: 83.8% | viability, T/C (second compound 0.316 µM, first compound 0.000316 µM): 84.8% | viability, T/C (second compound 0.316 µM, first compound 0.001 µM): 75.2% | viability, T/C (second compound 0.316 µM, first compound 0.00316 µM): 66.3% | viability, T/C (second compound 0.316 µM, first compound 0.01 µM): 68% | viability, T/C [13]: 80.9% | viability, T/C [14]: 64.7% | viability, T/C (second compound 1 µM, first compound 0.000316 µM): 75.8% | viability, T/C (second compound 1 µM, first compound 0.001 µM): 65% | viability, T/C (second compound 1 µM, first compound 0.00316 µM): 63.7% | viability, T/C (second compound 1 µM, first compound 0.01 µM): 52.4% | viability, T/C [19]: 52.4% | viability, T/C [20]: 54.6% | viability, T/C (second compound 3.16 µM, first compound 0.000316 µM): 61.9% | viability, T/C (second compound 3.16 µM, first compound 0.001 µM): 73.8% | viability, T/C (second compound 3.16 µM, first compound 0.00316 µM): 60.1% | viability, T/C (second compound 3.16 µM, first compound 0.01 µM): 54.3% | viability, T/C [25]: 53.8% | viability, T/C [26]: 52% | viability, T/C (second compound 10 µM, first compound 0.000316 µM): 61.8% | viability, T/C (second compound 10 µM, first compound 0.001 µM): 59.6% | viability, T/C (second compound 10 µM, first compound 0.00316 µM): 55.9% | viability, T/C (second compound 10 µM, first compound 0.01 µM): 48.6% | viability, T/C [31]: 65% | viability, T/C [32]: 71.9%

COc1cccc2c1C(=O)c1c(O)c3c(c(O)c1C2=O)CC(O)(C(=O)CO)CC3OC1CC(N)C(O)C(C)O1 (stereo not drawn) + CN1CCN(c2cc(C(=O)Nc3cc4cc(-c5cnn(C)c5)ccc4cn3)ccn2)CC1
IC50 (second compound 0.0316 µM): 0.109 µM | IC50 (second compound 0.1 µM): 0.174 µM | IC50 (second compound 0.316 µM): 0.22 µM | IC50 (second compound 1 µM): < 0.0316 µM | IC50 (second compound 3.16 µM): < 0.0316 µM | IC50 (second compound 10 µM): < 0.0316 µM | viability, T/C [1]: 73.1% | viability, T/C [2]: 50.2% | viability, T/C [3]: 40.9% | viability, T/C [4]: 28.2% | viability, T/C [5]: 31% | viability, T/C [6]: 36% | viability, T/C [7]: 74% | viability, T/C [8]: 59.4% | viability, T/C [9]: 38.5% | viability, T/C [10]: 34.3% | viability, T/C [11]: 39.9% | viability, T/C [12]: 47.1% | viability, T/C [13]: 73% | viability, T/C [14]: 67.4% | viability, T/C [15]: 42.1% | viability, T/C [16]: 35.8% | viability, T/C [17]: 30.7% | viability, T/C [18]: 46.5% | viability, T/C [19]: 19.8% | viability, T/C [20]: 16.7% | viability, T/C [21]: 15.3% | viability, T/C [22]: 20.3% | viability, T/C [23]: 38% | viability, T/C [24]: 54.5% | viability, T/C [25]: 8.41% | viability, T/C [26]: 7.95% | viability, T/C [27]: 11.9% | viability, T/C [28]: 22.1% | viability, T/C [29]: 33.8% | viability, T/C [30]: 51% | viability, T/C [31]: 1.49% | viability, T/C [32]: 1.52% | viability, T/C [33]: 2.85% | viability, T/C [34]: 3.41% | viability, T/C [35]: 10.8% | viability, T/C [36]: 13.8%

C#Cc1c(F)ccc2cc(O)cc(-c3ncc4c(N5CC6CCC(C5)N6)nc(OCC56CCCN5CC(F)C6)nc4c3F)c12 (stereo not drawn) + CNC(=O)c1ccc(Nc2nc(OC3CCCC3)c3c(-c4ccc5nc(C)oc5c4)c[nH]c3n2)c(OC)c1
IC50 (second compound 0.0316 µM): 1.07 µM | IC50 (second compound 0.1 µM): 0.735 µM | IC50 (second compound 0.316 µM): 0.298 µM | IC50 (second compound 1 µM): 0.223 µM | IC50 (second compound 3.16 µM): 0.181 µM | IC50 (second compound 10 µM): 0.202 µM | viability, T/C [1]: 102% | viability, T/C [2]: 93.5% | viability, T/C [3]: 70.8% | viability, T/C [4]: 53.7% | viability, T/C [5]: 32.1% | viability, T/C [6]: 26.1% | viability, T/C [7]: 81.5% | viability, T/C [8]: 67.9% | viability, T/C [9]: 61.9% | viability, T/C [10]: 46.3% | viability, T/C [11]: 33.9% | viability, T/C [12]: 25.6% | viability, T/C [13]: 71.7% | viability, T/C [14]: 60.8% | viability, T/C [15]: 47.2% | viability, T/C [16]: 41.6% | viability, T/C [17]: 33.8% | viability, T/C [18]: 26.8% | viability, T/C [19]: 58.5% | viability, T/C [20]: 58.7% | viability, T/C [21]: 45.1% | viability, T/C [22]: 37.3% | viability, T/C [23]: 28.5% | viability, T/C [24]: 24.6% | viability, T/C [25]: 62.7% | viability, T/C [26]: 51.9% | viability, T/C [27]: 49.6% | viability, T/C [28]: 32.8% | viability, T/C [29]: 39.4% | viability, T/C [30]: 24% | viability, T/C [31]: 64.9% | viability, T/C [32]: 50.5% | viability, T/C [33]: 46.4% | viability, T/C [34]: 42.5% | viability, T/C [35]: 30.5% | viability, T/C [36]: 21.9%
